pIC50: −log10 of the molar value.
Key:
ROCK2 kinase = target: T1, ROCK2 kinase (Homo sapiens, UniProt O75116); assay: In vitro evaluation of ROCK2 kinase activity (HTRF KinEASE-STK time-resolved fluorometric assay); type: biochemical; settings: ROCK2 kinase 0.4 ng/μL, ATP 6.739 μM
T1 construct: purchased Invitrogen PV3759
Procedure: ROCK2 activity screening. ROCK2 activity was detected using a 96-well (Cisbio) time-resolved fluorometric assay. The assay for ROCK2 was performed in the following assay buffer: 5 mM MgCl2 (Sigma), 1 mM DTT (Sigma) and 1× kinase buffer. The kinase buffer was used for dilution. 7.5 μL of ROCK2 kinase (Invitrogen, PV3759) was added to a 96-well microplate to reach a final concentration of 0.4 ng/μL, and then 0.25 μL of test compound (DMSO content: 1% (volume fraction)) was added. The mixture was incubated at room temperature for 0.5 h. To start the reaction, the kinase buffer was used to mix ATP (Aladdin) and the substrate STK-substrate 2-biotin. 7.5 μL of the mixed solution was added to the microplate to reach final concentrations of 6.739 μM and 1 μM. The resulting mixture was incubated at room temperature for 2 h. 5 mL of detection buffer was mixed with STK antibody-Cryptate, and then an appropriate volume of the mixture was mixed with an equal volume of streptavidin-XL665. 10 μL of the resulting mixture was added to the microplate to stop the reaction. After further incubation for about 1 h, the microplate was read on a Molecular Devices SpectraMax i3x multifunctional microplate reader. The kinase buffer, the STK-substrate 2-biotin, the detection buffer, the STK antibody-Cryptate, and the streptavidin-XL665 were all from HTRF KinEASE-STK kit (Cisbio, 1000 tests, 61GSTXLA).

ROCK1 kinase = target: T2, ROCK1 kinase (Homo sapiens, UniProt Q13464); assay: In vitro evaluation of ROCK1 kinase selectivity (HTRF KinEASE-STK time-resolved fluorometric assay); type: biochemical; settings: ROCK1 kinase 0.4 ng/μL, ATP 3.53 μM
T2 construct: purchased Invitrogen
Procedure: ROCK1 activity was detected using a 96-well (Cisbio) time-resolved fluorometric assay. The assay for ROCK1 was performed in the following assay buffer: 5 mM MgCl2 (Sigma), 1 mM DTT (Sigma) and 1× kinase buffer. The kinase buffer was used for dilution. 7.5 μL of ROCK1 kinase (Invitrogen) was added to a 96-well microplate to reach a final concentration of 0.4 ng/μL, and then 0.25 μL of test compound (DMSO content: 1%) was added. The mixture was incubated at room temperature for 0.5 h. To start the reaction, the kinase buffer was also used to mix ATP (Aladdin) and the substrate STK-substrate 2-biotin. 7.5 μL of the mixed solution was added to the microplate to reach final concentrations of 3.53 μM and 1 μM. The resulting mixture was incubated at room temperature for 2 h. 5 mL of detection buffer was mixed with STK antibody-Cryptate, and then an appropriate volume of the mixture was mixed with an equal volume of streptavidin-XL665. 10 μL of the resulting mixture was added to stop the reaction. After further incubation for about 1 h, the microplate was read on a Molecular Devices SpectraMax i3x multifunctional microplate reader. The kinase buffer, the STK-substrate 2-biotin, the detection buffer, the STK antibody-Cryptate, and the streptavidin-XL665 were all from HTRF KinEASE-STK kit (Cisbio, 1000 tests, 61GSTXLA).

T1 sequence (O75116 whole entry): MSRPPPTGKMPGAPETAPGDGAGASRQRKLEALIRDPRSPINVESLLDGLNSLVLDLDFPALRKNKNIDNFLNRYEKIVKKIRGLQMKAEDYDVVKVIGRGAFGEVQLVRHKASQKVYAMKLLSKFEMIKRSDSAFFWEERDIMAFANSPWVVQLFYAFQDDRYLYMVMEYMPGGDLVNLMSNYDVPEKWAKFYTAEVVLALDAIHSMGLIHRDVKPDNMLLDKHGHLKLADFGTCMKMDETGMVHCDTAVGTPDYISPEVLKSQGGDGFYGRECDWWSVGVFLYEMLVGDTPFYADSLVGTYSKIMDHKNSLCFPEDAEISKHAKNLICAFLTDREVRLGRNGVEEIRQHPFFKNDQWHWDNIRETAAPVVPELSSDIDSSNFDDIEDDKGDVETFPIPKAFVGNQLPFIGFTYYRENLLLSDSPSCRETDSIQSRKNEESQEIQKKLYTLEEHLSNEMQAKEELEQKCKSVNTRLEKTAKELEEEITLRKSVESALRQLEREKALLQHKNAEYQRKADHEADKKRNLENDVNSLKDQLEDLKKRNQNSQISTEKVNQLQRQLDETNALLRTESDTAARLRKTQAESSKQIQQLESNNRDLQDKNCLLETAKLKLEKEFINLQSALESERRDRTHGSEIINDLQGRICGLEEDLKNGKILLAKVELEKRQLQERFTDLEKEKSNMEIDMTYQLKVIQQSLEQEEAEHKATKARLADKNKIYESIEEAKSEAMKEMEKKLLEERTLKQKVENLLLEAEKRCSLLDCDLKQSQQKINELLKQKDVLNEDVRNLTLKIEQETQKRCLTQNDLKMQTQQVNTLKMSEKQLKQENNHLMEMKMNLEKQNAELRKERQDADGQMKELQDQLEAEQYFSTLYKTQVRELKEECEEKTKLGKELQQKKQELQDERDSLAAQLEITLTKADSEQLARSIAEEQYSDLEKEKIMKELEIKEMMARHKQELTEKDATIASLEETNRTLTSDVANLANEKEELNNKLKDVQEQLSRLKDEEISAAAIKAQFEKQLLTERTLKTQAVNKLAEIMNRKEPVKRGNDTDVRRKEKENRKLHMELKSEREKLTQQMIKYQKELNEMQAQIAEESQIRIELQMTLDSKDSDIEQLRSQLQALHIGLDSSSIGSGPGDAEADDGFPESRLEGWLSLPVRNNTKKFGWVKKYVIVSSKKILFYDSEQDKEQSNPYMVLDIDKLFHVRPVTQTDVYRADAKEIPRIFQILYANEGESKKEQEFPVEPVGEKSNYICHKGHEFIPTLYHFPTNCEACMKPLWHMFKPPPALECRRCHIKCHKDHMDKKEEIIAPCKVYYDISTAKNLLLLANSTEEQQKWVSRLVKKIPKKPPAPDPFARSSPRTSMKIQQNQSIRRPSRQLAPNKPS
T2 sequence (Q13464 whole entry): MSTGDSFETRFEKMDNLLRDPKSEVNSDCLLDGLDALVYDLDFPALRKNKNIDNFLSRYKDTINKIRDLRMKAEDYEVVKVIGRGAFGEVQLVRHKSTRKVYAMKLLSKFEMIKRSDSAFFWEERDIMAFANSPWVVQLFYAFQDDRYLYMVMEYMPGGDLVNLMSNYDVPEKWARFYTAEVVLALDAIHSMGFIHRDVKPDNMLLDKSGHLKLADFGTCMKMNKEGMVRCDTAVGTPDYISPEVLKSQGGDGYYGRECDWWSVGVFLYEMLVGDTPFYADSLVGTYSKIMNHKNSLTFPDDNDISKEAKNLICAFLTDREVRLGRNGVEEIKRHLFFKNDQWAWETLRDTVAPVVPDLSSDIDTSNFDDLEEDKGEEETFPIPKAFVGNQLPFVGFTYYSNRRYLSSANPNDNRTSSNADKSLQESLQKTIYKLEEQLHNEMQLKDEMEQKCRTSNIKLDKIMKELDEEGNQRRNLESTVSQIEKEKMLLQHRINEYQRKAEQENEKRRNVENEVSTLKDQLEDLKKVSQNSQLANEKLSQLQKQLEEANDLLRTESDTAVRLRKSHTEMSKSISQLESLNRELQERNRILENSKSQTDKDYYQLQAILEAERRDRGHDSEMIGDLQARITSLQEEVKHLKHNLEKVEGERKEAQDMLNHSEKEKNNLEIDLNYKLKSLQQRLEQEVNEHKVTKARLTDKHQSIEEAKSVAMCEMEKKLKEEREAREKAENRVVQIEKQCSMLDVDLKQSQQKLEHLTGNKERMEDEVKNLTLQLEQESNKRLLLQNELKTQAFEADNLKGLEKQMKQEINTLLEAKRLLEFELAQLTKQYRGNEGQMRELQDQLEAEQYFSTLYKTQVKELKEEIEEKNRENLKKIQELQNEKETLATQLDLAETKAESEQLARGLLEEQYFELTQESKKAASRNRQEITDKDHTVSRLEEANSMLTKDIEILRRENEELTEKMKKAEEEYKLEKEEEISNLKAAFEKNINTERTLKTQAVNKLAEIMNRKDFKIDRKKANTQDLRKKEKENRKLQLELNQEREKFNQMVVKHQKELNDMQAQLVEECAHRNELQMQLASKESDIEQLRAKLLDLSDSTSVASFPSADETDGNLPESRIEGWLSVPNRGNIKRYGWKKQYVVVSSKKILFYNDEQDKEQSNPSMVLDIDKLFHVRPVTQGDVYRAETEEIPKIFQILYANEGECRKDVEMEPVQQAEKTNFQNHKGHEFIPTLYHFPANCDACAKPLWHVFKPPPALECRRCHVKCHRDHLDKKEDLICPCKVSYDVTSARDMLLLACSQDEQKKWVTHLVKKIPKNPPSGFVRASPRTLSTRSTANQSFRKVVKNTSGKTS

Row | Structure (SMILES) | pIC50 (ROCK2 kinase) | pIC50 (ROCK1 kinase)
1 | Cn1c(C(=O)O)cc2c1CN(c1nccc(Nc3ccc(-c4cn[nH]c4)cc3)n1)CC2 [Compound L001, 6-(4-((4-(1H-pyrazol-4-yl)phenyl)amino)pyrimidin-2-yl)-1-methyl-4,5,6,7-tetrahydro-1H-pyrrolo[2,3-c]pyridine-2-carboxylic Acid] | < 5.35 | 
2 | O=C(O)c1cn2c(n1)CN(c1nccc(Nc3ccc(-c4cn[nH]c4)cc3)n1)CC2 [Compound L002, 7-(4-((4-(1H-pyrazol-4-yl)phenyl)amino)pyrimidin-2-yl)-5,6,7,8-tetrahydroimidazo[1,2-a]pyrazine-2-carboxylic Acid] | < 5.35 | 
3 | Cn1c(C(=O)NC2CC(F)(F)C2)cc2c1CN(c1nccc(Nc3ccc(-c4cn[nH]c4)cc3)n1)CC2 [Compound L004, 6-(4-((4-(1H-pyrazol-4-yl)phenyl)amino)pyrimidin-2-yl)-N-(3,3-difluorocyclobutyl)-1-methyl-4,5,6,7-tetrahydro-1H-pyrrolo[2,3-c]pyridine-2-carboxamide] | 6.30 to 7.30 | 5.35 to 6.30
4 | Cn1c(C(=O)N2CC(F)(F)C2)cc2c1CN(c1nccc(Nc3ccc4[nH]ncc4c3)n1)CC2 [Compound L006, (6-(4-((1H-indazol-5-yl)amino)pyrimidin-2-yl)-1-methyl-4,5,6,7-tetrahydro-1H-pyrrol[2,3-c]pyridin-2-yl)(3,3-difluoroazetidin-1-yl)methanone] | 6.30 to 7.30 | 5.35 to 6.30
5 | Cn1c(C(=O)N2CC(F)(F)C2)cc2c1CN(c1nccc(Nc3ccc(Oc4ncccc4C(N)=O)c(F)c3)n1)CC2 [Compound L007, 2-(4-((2-(2-(3,3-difluoroazetidin-1-carbonyl)-1-methyl-1,4,5,7-tetrahydro-6H-pyrrolo[2,3-c]pyridin-6-yl)pyrimidin-4-yl)amino)-2-fluorophenoxy)nicotinamide] | 5.35 to 6.30 | 
6 | O=C(NC1CC(F)(F)C1)c1cn2c(n1)CN(c1nccc(Nc3ccc(-c4cn[nH]c4)cc3)n1)CC2 [Compound L008, 7-(4-((4-(1H-pyrazol-4-yl)phenyl)amino)pyrimidin-2-yl)-N-(3,3-difluorocyclobutyl)-5,6,7,8-tetrahydroimidazo[1,2-a]pyrazine-2-carboxamide] | ≥ 7.30 | < 5.35
7 | CC(C)NC(=O)c1cc2c(n1C)CN(c1nccc(Nc3ccc(-c4cn[nH]c4)cc3)n1)CC2 [Compound L009, 6-(4-((4-(1H-pyrazol-4-yl)phenyl)amino)pyrimidin-2-yl)-N-isopropyl-1-methyl-4,5,6,7-tetrahydro-1H-pyrrolo[2,3-c]pyridine-2-carboxamide] | 5.35 to 6.30 | 
8 | Cn1c(C(=O)N2CC(C#N)C2)cc2c1CN(c1nccc(Nc3ccc(-c4cn[nH]c4)cc3)n1)CC2 [Compound L010, 1-(6-(4-((4-(1H-pyrazol-4-yl)phenyl)amino)pyrimidin-2-yl)-1-methyl-4,5,6,7-tetrahydro-1H-pyrrolo[2,3-c]pyridin-2-carbonyl)azetidine-3-carbonitrile] | ≥ 7.30 | < 5.35
9 | Cn1c(C(=O)Nc2ccnnc2)cc2c1CN(c1nccc(Nc3ccc(-c4cn[nH]c4)cc3)n1)CC2 [Compound L012, 6-(4-((4-(1H-pyrazol-4-yl)phenyl)amino)pyrimidin-2-yl)-1-methyl-N-(pyridazin-4-yl)-4,5,6,7-tetrahydro-1H-pyrrolo[2,3-c]pyridine-2-carboxamide] | 6.30 to 7.30 | 6.30 to 7.30
10 | CN(C(=O)c1cc2c(n1C)CN(c1nccc(Nc3ccc(-c4cn[nH]c4)cc3)n1)CC2)C1CC(F)(F)C1 [Compound L014, 6-(4-((4-(1H-pyrazol-4-yl)phenyl)amino)pyrimidin-2-yl)-N-(3,3-difluorocyclobutyl)-N,1-dimethyl-4,5,6,7-tetrahydro-1H-pyrrolo[2,3-c]pyridine-2-carboxamide] | < 5.35 | 
11 | Cn1c(C(=O)N2CC(F)(F)C2)cc2c1CN(c1nccc(Nc3ccc(-c4c[nH]nc4F)c(F)c3)n1)CC2 [Compound L016, (3,3-difluoroazetidin-1-yl)(6-(4-((3-fluoro-4-(3-fluoro-1H-pyrazol-4-yl)phenyl)amino)pyrimidin-2-yl)-1-methyl-4,5,6,7-tetrahydro-1H-pyrrolo[2,3-c]pyridin-2-yl)methanone] | ≥ 7.30 | < 5.35
12 | Cn1c(C(=O)NC2CCN(c3ccncc3Cl)CC2)cc2c1CN(c1nccc(Nc3ccc(-c4cn[nH]c4)cc3)n1)CC2 [Compound L021] | 6.30 to 7.30 | < 5.35
13 | CN(C(=O)c1cn2c(n1)CN(c1nccc(Nc3ccc(-c4cn[nH]c4)cc3)n1)CC2)C1CC(F)(F)C1 [Compound L022] | 5.35 to 6.30 | 
14 | Cn1c(C(=O)Nc2cnccc2F)cc2c1CN(c1nccc(Nc3ccc(-c4cn[nH]c4)cc3)n1)CC2 [Compound L023] | 6.30 to 7.30 | 5.35 to 6.30
15 | Cn1c(C(=O)N2C[C@@H](O)[C@@H](F)C2)cc2c1CN(c1nccc(Nc3ccc(-c4cn[nH]c4)cc3)n1)CC2 [Compound L024] | ≥ 7.30 | 5.35 to 6.30
16 | Cn1c(C(=O)N2CC(F)(F)C2)cc2c1CN(c1ncc(C#N)c(Nc3ccc(-c4cn[nH]c4)cc3)n1)CC2 [Compound L034, 4-((4-(1H-pyrazol-4-yl)phenyl)amino)-2-(2-(3,3-difluoroazetidin-1-carbonyl)-1-methyl-4,5-dihydro-1H-pyrrolo[2,3-c]pyridin-6(7H)-yl)pyrimidine-5-carbonitrile] | ≥ 7.30 | < 5.35

The remaining lines, values ahead:

Row | pIC50 (ROCK2 kinase) | pIC50 (ROCK1 kinase) | Structure (SMILES)
17 | < 5.35 |  | O=C(c1cc2n(n1)CCN(c1nccc(Nc3ccc(-c4cn[nH]c4)cc3)n1)C2)N1CC(F)(F)C1 [Compound L003, (5-(4-((4-(1H-pyrazol-4-yl)phenyl)amino)pyrimidin-2-yl)-4,5,6,7-tetrahydropyrazolo[1,5-a]pyrazin-2-yl)(3,3-difluoroazetidin-1-yl)methanone]
18 | 5.35 to 6.30 |  | O=C(c1ccc2nn(-c3nccc(Nc4ccc(-c5cn[nH]c5)cc4)n3)cc2c1)N1CC(F)(F)C1 [Compound L011, (2-(4-((4-(1H-pyrazol-4-yl)phenyl)amino)pyrimidin-2-yl)-2H-indazol-5-yl)(3,3-difluoroazetidin-1-yl)methanone]
19 | < 5.35 |  | O=C(O)c1cc2n(c1)CCN(c1nccc(Nc3ccc(-c4cn[nH]c4)cc3)n1)C2 [Compound L013, 2-(4-((4-(1H-pyrazol-4-yl)phenyl)amino)pyrimidin-2-yl)-1,2,3,4-tetrahydropyrrolo[1,2-a]pyrazine-7-carboxylic Acid]
20 | 6.30 to 7.30 | < 5.35 | O=C(c1cn2c(n1)CN(c1nccc(Nc3ccc(-c4cn[nH]c4)cc3)n1)CC2)N1CC(F)(F)C1 [Compound L015]
21 | 6.30 to 7.30 | < 5.35 | Cn1c(C(=O)N2CC(F)(F)C2)cc2c1C(C)(C)N(c1nccc(Nc3ccc(-c4cn[nH]c4)cc3)n1)CC2 [Compound L018]
22 | 6.30 to 7.30 | < 5.35 | Cn1c(C(=O)N2CC(F)(F)C2)cc2c1CN(c1nccc(Nc3ccc(-c4cn[nH]c4)cc3)n1)CC2(C)C [Compound L020, (6-(4-((4-(1H-pyrazol-4-yl)phenyl)amino)pyrimidin-2-yl)-1,4,4-trimethyl-4,5,6,7-tetrahydro-1H-pyrrolo[2,3-c]pyridin-2-yl)(3,3-difluoroazetidin-1-yl)methanone]
23 | < 5.35 |  | O=C(c1cc2n(c1)CCN(c1nccc(Nc3ccc(-c4cn[nH]c4)cc3)n1)C2)N1CC(F)(F)C1 [Compound L025, (2-(4-((4-(1H-pyrazol-4-yl)phenyl)amino)pyrimidin-2-yl)-1,2,3,4-tetrahydropyrrolo[1,2-a]pyrazin-7-yl)(3,3-difluoroazetidin-1-yl)methanone]
24 | 5.35 to 6.30 | < 5.35 | O=C(c1ccc2c(c1)CN(c1nccc(Nc3ccc(-c4cn[nH]c4)cc3)n1)CC2)N1CC(F)(F)C1 [Compound L028, (2-(4-((4-(1H-pyrazol-4-yl)phenyl)amino)pyrimidin-2-yl)-1,2,3,4-tetrahydroisoquinolin-7-yl)(3,3-difluoroazetidin-1-yl)methanone]
25 | 5.35 to 6.30 | < 5.35 | O=C(c1ccc2c(c1)CCN(c1nccc(Nc3ccc(-c4cn[nH]c4)cc3)n1)C2)N1CC(F)(F)C1 [Compound L029]
